Results as given in patent publication US10993436B2 (priority 2016, dated 2021).
Read-outs that look alike come from different tables or passages of the source.

Test system: Fusarium graminearum
Assay type: cell-based
Conditions: enzyme disk 119 nM where (+) enzyme, 5 days

Substance: mancozeb
- Reduction in F. graminearum growth relative to non-treated controls (Mancozeb 0.5 mg/l): 6% cd
- Reduction in F. graminearum growth relative to non-treated controls (Mancozeb 2 mg/l): 1% d
- Reduction in F. graminearum growth relative to non-treated controls (Mancozeb 5 mg/l): 17% cd
- Reduction in F. graminearum growth relative to non-treated controls (Mancozeb 10 mg/l): 26% bcd
